Measurements from patent publication US20220257595A1, “MACITENTAN FOR USE IN TREATING PORTOPULMONARY HYPERTENSION” (ACTELION PHARMACEUTICALS LTD, priority 2019, published 2022).

Experiment: PORTICO PK substudy: steady-state plasma macitentan and ACT-132577
Assay type: in vivo, human
Method: It was planned to enroll at least 20 patients who were on steady-state treatment with macitentan (i.e., at least 4 weeks) into the PK substudy. The substudy was conducted in consenting patients from all centers across all regions who agreed to participate. The substudy consisted of the following periods:
PK assessments period: PK assessments were to be performed after OL study treatment had been taken for at least 4 weeks. The substudy comprised two visits (Day 1: Enrollment and Day 2: Conclusion). See, FIG. 2. Subject eligibility was first checked on Day 1 of the PK substudy prior to the start of assessments.
PK substudy: On Day 1 of the PK substudy, the study treatment was required to be taken directly after the pre-dose blood sample. On Day 2 of the PK substudy, study treatment was required to be taken after the collection of the last PK blood sample (24 hours post Day 1 dose).
F3. Pharmacokinetic Endpoints for Macitentan and its Active Metabolite ACT-132577 • The area under the plasma concentration-time curve during one dosing interval (AUCt). • Maximum plasma concentration (Cmax) during a dosing interval. • The time to reach maximum plasma concentration (tmax) during a dosing interval.
(i) Timing for sampling: For the PK assessment, blood samples were drawn at the following time points: • PK substudy Day 1: Immediately before study treatment administration in the morning (pre-dose) and 1 h, 3 h, 5 h, 6 h, 7 h, 8 h, 9 h, 10 h, 12 h, and 14 h post-dose. • PK substudy Day 2: 24 h post-dose.
(iii) Bioanalysis: A validated liquid chromatography coupled to mass spectrometry method was used for determining the concentrations of macitentan and its metabolite ACT-132577 in plasma. The limit of quantification (LOQ) for both analytes was 1 ng/mL.
The measured individual plasma concentrations of macitentan and its metabolite ACT-132577 were used to directly obtain Cmax and tmax. AUCT was calculated according to the linear trapezoidal rule using the measured concentration-time values above the LOQ during one dosing interval. The PK variables were calculated on the basis of the real (actual) blood sampling time points. For mean value calculations, all values below the LOQ (below the limit of quantification (BLQ) values) were set to zero if ≤50% of the values at a given time point were BLQ. If >50% of the values at a given time point were BLQ, no mean value was calculated. Mean concentration-time profiles were generated using these criteria. The individual and mean plasma concentration-time profiles were plotted on a linear scale. The derived PK variables for macitentan and ACT-132577 (AUCT, Cmax, tmax) are listed by patient. Plasma concentrations per time point were summarized using arithmetic mean, minimum, median, maximum, standard deviation (SD), standard error (SE), and two-sided 95% confidence interval of the mean. […] (*For tmax the geometric mean and its 95% confidence interval were not calculated).

## NS(=O)(=O)Nc1ncnc(OCCOc2ncc(Br)cn2)c1-c1ccc(Br)cc1 [ACT-132577, aprocitentan]
  Plasma exposure in PoPH patients compared with other forms of PAH / other macitentan studies: consistent between PoPH patients and patients with other forms of PAH
OL macitentan 10 mg o.d. at least 4 weeks, PoPH patients, n=8
  Trough plasma concentration, mean±SD: 737.4 ± 190.0 ng/mL
human, plasma, oral, macitentan 10 mg o.d., PoPH patients, PKS 10 patients, read-out: Cmax, geometric mean (95% confidence interval)
  Cmax: 870 ng/mL
human, plasma, oral, macitentan 10 mg o.d., PoPH patients, PKS 10 patients, read-out: tmax, median (range)
  Tmax: 6.5 h
One dosing interval, macitentan 10 mg o.d., PoPH patients
  AUCT, geometric mean (95% confidence interval): 18100.0 ng·h/mL
